Assays:
[1] = molecular target: Human immunodeficiency virus type 1 integrase (Human immunodeficiency virus 1, UniProt Q7ZJM1); experiment: Allosteric inhibition of HIV-1 integrase by ELISA based IN-DNA assembly/Strand transfer assay
[2] = system: Human immunodeficiency virus 1; experiment: Antiviral activity against wild type HIV-1 NL4-3 infected in human MT4 cells assessed as reduction in viral replication; format: functional, organism-based; conditions: Human immunodeficiency virus 1, NL4-3, MT4
[3] = system: Human immunodeficiency virus 1; experiment: Antiviral activity against HIV-1 T125A infected in human MT4 cells assessed as reduction in viral replication; format: functional, organism-based; conditions: Human immunodeficiency virus 1, T125A
[4] = Metabolic stability in rat liver microsome; format: ADME; conditions: microsomes; note: time not given here
[5] = Metabolic stability in human liver microsome; format: ADME; conditions: microsomes; note: time not given here
[6] = Permeability of the compound in human Caco-2 cells; format: ADME, cell-based; conditions: read-out: permeability
[7] = Half life in rat at 0.3 mg/kg, iv; format: ADME, organism-based; conditions: in vivo
[8] = MRT in rat at 0.3 mg/kg, iv; format: ADME, organism-based; conditions: in vivo
[9] = Clearance in rat at 0.3 mg/kg, iv; format: ADME, organism-based; conditions: in vivo
[10] = Oral bioavailability in rat at 3 mg/kg; format: ADME, organism-based; conditions: in vivo
[11] = Volume of distribution at steady state in rat at 0.3 mg/kg, iv; format: ADME, organism-based; conditions: in vivo, read-out: Vdss

Human immunodeficiency virus type 1 integrase, sequence (Q7ZJM1 whole entry): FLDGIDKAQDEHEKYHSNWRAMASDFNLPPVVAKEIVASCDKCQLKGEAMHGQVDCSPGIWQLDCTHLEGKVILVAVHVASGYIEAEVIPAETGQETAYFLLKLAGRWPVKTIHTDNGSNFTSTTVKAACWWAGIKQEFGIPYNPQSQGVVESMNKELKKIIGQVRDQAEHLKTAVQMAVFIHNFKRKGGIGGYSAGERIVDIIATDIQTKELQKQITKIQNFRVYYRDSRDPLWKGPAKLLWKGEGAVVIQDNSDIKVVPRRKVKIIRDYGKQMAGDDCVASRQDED

Work on `Cc1ccc(-c2c([C@H](OC(C)(C)C)C(=O)O)c(C)nc3ccccc23)cc1C` yielded an IC50 [1] of 12 nM.

For `Cc1ccc2c(c1C(OC(C)(C)C)C(=O)O)[C@]1(CC[C@H](C)CC1)CC2=O` (some centres undefined), the EC50 [2] was 3200 nM and the IC50 [1] was 490 nM.

`Cc1cc(NC(=O)CC(C)C)c2c(c1C(OC(C)(C)C)C(=O)O)[C@]1(CC2)CC[C@@H](C)CC1` (some centres undefined) showed an EC50 [2] of 30 nM, an EC50 [3] of 940 nM and a Stability [4] of 97%. It also gave a Stability [5] of 72%, an IC50 [1] of 2.2 nM and a Papp [6] of 29 ×10⁻⁶ cm/s.

`Cc1cc(C(=O)NCC(C)C)c2c(c1C(OC(C)(C)C)C(=O)O)[C@]1(CC2)CC[C@@H](C)CC1` (some centres undefined) gave an EC50 [2] of 33 nM, an EC50 [3] of 3300 nM and an IC50 [1] of 5.7 nM. It also gave a Papp [6] of 15 ×10⁻⁶ cm/s.

For `COC1C[C@]2(CC[C@@H](C)CC2)c2c1ccc(C)c2C(OC(C)(C)C)C(=O)O` (some centres undefined), the EC50 [2] was 2300 nM and the IC50 [1] was 53 nM.

For `Cc1cc(C(=O)NC(C)C)c2c(c1C(OC(C)(C)C)C(=O)O)[C@]1(CC2)CC[C@@H](C)CC1` (some centres undefined), the EC50 [2] was 110 nM, the EC50 [3] was 2700 nM and the Stability [4] was 96%. The Stability [5] was 99%, the IC50 [1] was 20 nM and the Papp [6] was 13 ×10⁻⁶ cm/s.

In the case of `Cc1ccc2c(c1C(OC(C)(C)C)C(=O)O)[C@]1(CC[C@H](C)CC1)CC2O` (some centres undefined), the EC50 [2] is reported as 15000 nM and the IC50 [1] is reported as 430 nM.

For `CNC(=O)c1cc(C)c(C(OC(C)(C)C)C(=O)O)c2c1CC[C@]21CC[C@@H](C)CC1` (some centres undefined), the EC50 [2] was 560 nM, the EC50 [3] was 9900 nM and the Stability [4] was 98%. For the same compound, the Stability [5] was 100%, the IC50 [1] was 160 nM and the Papp [6] was 8 ×10⁻⁶ cm/s.

Compound `Cc1cc(C(=O)NC2CCCCC2)c2c(c1C(OC(C)(C)C)C(=O)O)[C@]1(CC2)CC[C@@H](C)CC1` (some centres undefined) has an EC50 [2] of 21 nM, an EC50 [3] of 130 nM and a Stability [4] of 99%. For the same compound, the Stability [5] was 94%, the IC50 [1] was 2 nM and the Papp [6] was 24 ×10⁻⁶ cm/s.

Work on `Cc1cc(C(=O)NC2CCCCC2)c2c(c1[C@@H](OC(C)(C)C)C(=O)O)[C@]1(CC2)CC[C@@H](C)CC1` yielded an EC50 [2] of 110 nM, an EC50 [3] of 1200 nM and a Stability [4] of 100%. It also gave a Stability [5] of 92%, an IC50 [1] of 8.3 nM and a Papp [6] of 20 ×10⁻⁶ cm/s.

`Cc1cc(C(=O)NC2CCCCC2)c2c(c1[C@H](OC(C)(C)C)C(=O)O)[C@]1(CC2)CC[C@@H](C)CC1` showed a half-life [7] of 4.2 h, an EC50 [2] of 7.4 nM and an MRT [8] of 3.6 h. It also gave an EC50 [3] of 120 nM, a Stability [4] of 100% and a clearance [9] of 2.67 mL/min/kg. The Stability [5] was 91%, the IC50 [1] was 1.4 nM and the Papp [6] was 20 ×10⁻⁶ cm/s. For the same compound, the bioavailability [10] was 64% and the Vd [11] was 0.57 L/kg.

Work on `Cc1cc(C(=O)NC2CCCCCC2)c2c(c1C(OC(C)(C)C)C(=O)O)[C@]1(CC2)CC[C@@H](C)CC1` (some centres undefined) yielded an EC50 [2] of 21 nM, an EC50 [3] of 580 nM and a Stability [4] of 87%. It also gave a Stability [5] of 83%, an IC50 [1] of 1.8 nM and a Papp [6] of 30 ×10⁻⁶ cm/s.

In the case of `Cc1cc(C(=O)N(C)C)c2c(c1C(OC(C)(C)C)C(=O)O)[C@]1(CC2)CC[C@@H](C)CC1` (some centres undefined), the EC50 [2] is reported as 2600 nM, the EC50 [3] is reported as > 6000 nM and the Stability [4] is reported as 94%. It also gave a Stability [5] of 97%, an IC50 [1] of 1800 nM and a Papp [6] of 7 ×10⁻⁶ cm/s.

In the case of `Cc1ccc2c(c1C(OC(C)(C)C)C(=O)O)[C@]1(CC2)CC[C@@H](C)CC1` (mixture of isomers), the EC50 [2] is reported as 5300 nM, the EC50 [3] is reported as > 6000 nM and the Stability [4] is reported as 51%. The Stability [5] was 57%, the IC50 [1] was 54 nM and the Papp [6] was 48 ×10⁻⁶ cm/s.

`Cc1ccc2c(c1C(OC(C)(C)C)C(=O)O)[C@]1(CCC2)CC[C@@H](C)CC1` (mixture of isomers) gave an EC50 [2] of 4000 nM and an IC50 [1] of 50 nM.

For `Cc1cn([C@H]2C[C@H](N=[N+]=[N-])[C@@H](CO)O2)c(=O)[nH]c1=O` [ZIDOVUDINE], the EC50 [2] was 29.9 nM and the EC50 [3] was 38.9 nM.
